Our source for the IC50 values is patent publication US20240150358A1, “PURINES AND METHODS OF THEIR USE” (Kineta, Inc., priority 2020, published 2024).

Molecules are shown by their SMILES. A value given as a limit tells only on which side of the number the result lay.

The target in the experiment is full-length human PIKFYVE (Homo sapiens (Human), UniProt Q9Y2I7, L932S/Q1183K/Q995L/S1033A/S696N/T998S). Put plainly: PIKfyve biochemical assay (ADP-Glo Kinase assay, Carna Biosciences). As to conditions: ADP-Glo, GST-PIKFYVE, 10 μM to 3 nM; read-out: hPIKfyve IC50. The method, then: (§1) PIKfyve Biochemical Assay. The biochemical PIKFyve inhibition assays were run by Carna Biosciences according to proprietary methodology based on the Promega ADP-Glo™ Kinase assay. […] GST-PIKFYVE was purified by using glutathione sepharose chromatography and used in an ADP-Glo™ Kinase assay (Promega). Reactions were set up by adding the test compound solution, substrate solution, ATP solution and kinase solution, each at 4× final concentrations. Reactions were prepared with assay buffer (50 mM MOPS, 1 mM DTT, pH7.2), mixed, and incubated in black 384 well polystyrene plates for 1 hour at room temperature. ADPGlo™ reagent was then added for 40 minutes, followed by kinase detection reagent for an additional 40 minutes. The kinase activity was evaluated by detecting relative light units on a luminescence plate reader. Samples were run in duplicate from 10 μM to 3 nM. […] IC50 values were calculated from concentration vs % inhibition curves by fitting to a four-parameter logistic curve.
Sequence of full-length human PIKFYVE (Q9Y2I7 whole entry S696N/L932S/Q995L/T998S/S1033A/Q1183K): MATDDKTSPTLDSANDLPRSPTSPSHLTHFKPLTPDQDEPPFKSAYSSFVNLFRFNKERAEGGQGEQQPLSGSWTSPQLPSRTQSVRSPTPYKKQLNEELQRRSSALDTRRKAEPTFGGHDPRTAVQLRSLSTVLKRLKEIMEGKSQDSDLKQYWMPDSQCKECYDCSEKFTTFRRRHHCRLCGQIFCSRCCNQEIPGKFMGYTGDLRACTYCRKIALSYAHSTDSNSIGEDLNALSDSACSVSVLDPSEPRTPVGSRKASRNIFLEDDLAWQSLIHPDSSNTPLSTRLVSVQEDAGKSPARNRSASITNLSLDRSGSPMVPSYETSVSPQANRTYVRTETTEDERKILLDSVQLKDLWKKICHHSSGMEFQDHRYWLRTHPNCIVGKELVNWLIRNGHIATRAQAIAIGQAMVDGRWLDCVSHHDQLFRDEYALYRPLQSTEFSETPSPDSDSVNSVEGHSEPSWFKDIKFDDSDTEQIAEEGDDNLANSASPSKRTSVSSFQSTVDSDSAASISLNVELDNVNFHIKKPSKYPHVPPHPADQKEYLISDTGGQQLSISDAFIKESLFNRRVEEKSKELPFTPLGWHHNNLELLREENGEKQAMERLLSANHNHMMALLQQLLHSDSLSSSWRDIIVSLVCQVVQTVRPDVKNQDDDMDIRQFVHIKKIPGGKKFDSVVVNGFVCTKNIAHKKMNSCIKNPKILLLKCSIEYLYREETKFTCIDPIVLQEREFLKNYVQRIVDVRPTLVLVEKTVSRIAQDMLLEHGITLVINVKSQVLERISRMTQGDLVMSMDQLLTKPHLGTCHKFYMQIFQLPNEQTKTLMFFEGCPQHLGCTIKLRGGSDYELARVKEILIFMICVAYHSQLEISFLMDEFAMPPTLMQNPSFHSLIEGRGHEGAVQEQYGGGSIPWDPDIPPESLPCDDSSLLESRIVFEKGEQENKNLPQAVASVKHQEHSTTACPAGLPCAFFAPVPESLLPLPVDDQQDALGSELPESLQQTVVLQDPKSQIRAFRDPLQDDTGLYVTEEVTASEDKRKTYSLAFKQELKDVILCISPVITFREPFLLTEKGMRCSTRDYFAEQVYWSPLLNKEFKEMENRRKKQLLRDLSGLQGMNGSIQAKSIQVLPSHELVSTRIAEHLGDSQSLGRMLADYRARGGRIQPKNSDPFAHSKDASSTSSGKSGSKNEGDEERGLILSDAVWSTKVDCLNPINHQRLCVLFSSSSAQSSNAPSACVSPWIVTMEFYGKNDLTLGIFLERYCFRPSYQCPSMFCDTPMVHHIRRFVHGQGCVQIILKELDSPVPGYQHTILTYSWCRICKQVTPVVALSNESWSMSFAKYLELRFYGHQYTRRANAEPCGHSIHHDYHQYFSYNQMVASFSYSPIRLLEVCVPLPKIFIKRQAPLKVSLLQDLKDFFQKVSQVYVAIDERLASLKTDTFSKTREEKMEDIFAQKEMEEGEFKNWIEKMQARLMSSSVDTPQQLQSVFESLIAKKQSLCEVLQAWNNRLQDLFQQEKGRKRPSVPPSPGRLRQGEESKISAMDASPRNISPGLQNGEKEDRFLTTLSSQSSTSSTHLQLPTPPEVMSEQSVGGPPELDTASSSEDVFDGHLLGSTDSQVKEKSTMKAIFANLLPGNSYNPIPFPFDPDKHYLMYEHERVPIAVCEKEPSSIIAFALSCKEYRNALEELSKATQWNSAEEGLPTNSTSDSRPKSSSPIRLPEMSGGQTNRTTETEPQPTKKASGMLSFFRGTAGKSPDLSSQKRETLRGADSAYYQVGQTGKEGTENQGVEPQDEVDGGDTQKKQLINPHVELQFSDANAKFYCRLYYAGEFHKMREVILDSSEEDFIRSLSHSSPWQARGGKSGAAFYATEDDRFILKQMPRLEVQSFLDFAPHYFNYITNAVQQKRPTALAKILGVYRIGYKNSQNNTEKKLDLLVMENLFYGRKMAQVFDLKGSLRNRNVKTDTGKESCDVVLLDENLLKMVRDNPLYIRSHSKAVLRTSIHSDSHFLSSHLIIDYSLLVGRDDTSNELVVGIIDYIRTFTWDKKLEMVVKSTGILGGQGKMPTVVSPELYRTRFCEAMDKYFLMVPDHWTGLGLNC
as §1, with “The” for “PIKfyve Biochemical Assay. The”, “ADP-Glo™” for “ADPGlo™”, “uM” for “μM”, “curve. […]” for “curve.”
The term IC50 denotes the midpoint of a concentration-inhibition curve. On to `Cn1c(C2CNC2)nc2c(N3CCOCC3)nc(-n3ccc(-c4ccccc4)n3)nc21` [Compound 83, 4-(8-(azetidin-3-yl)-9-methyl-2-(3-phenyl-1H-pyrazol-1-yl)-9H-purin-6-yl)morpholine], for which the concentration for half-maximal inhibition (IC50) lay in the range of 10 to 100 nM. On to `Cn1c(-c2ccncc2)nc2c(N3CCOCC3)nc(-n3ccc(CC4CN(C(=O)OC(C)(C)C)C4)n3)nc21` [Compound 84, tert-butyl 3-((1-(9-methyl-6-morpholino-8-(pyridin-4-yl)-9H-purin-2-yl)-1H-pyrazol-3-yl)methyl)azetidine-1-carboxylate], for which the IC50 lay in the range of 10 to 100 nM.

Turning to `Cn1c(C2=CCOCC2)nc2c(N3CCOCC3)nc(-n3ccc(-c4cccnc4)n3)nc21` [Compound 85, 4-(8-(3,6-dihydro-2H-pyran-4-yl)-9-methyl-2-(3-(pyridin-3-yl)-1H-pyrazol-1-yl)-9H-purin-6-yl)morpholine], the IC50 lay in the range of 10 to 100 nM. Take `CN1CC(Cc2ccn(-c3nc(N4CCOCC4)c4nc(-c5ccncc5)n(C)c4n3)n2)C1` [Compound 86, 4-(9-methyl-2-(3-((1-methylazetidin-3-yl)methyl)-1H-pyrazol-1-yl)-8-(pyridin-4-yl)-9H-purin-6-yl)morpholine]: the IC50 is less than 10 nM.

`CN1CC(c2ccn(-c3nc(N4CCOCC4)c4nc(-c5ccncc5)n(C)c4n3)n2)CCC1=O` (centres unmarked) [Compound 88, 1-methyl-5-(1-(9-methyl-6-morpholino-8-(pyridin-4-yl)-9H-purin-2-yl)-1H-pyrazol-3-yl)piperidin-2-one]: the IC50 is less than 10 nM. For `Cn1c(C2CCOCC2)nc2c(N3CCOCC3)nc(-c3noc(-c4ccccc4)n3)nc21` [Compound 89, 4-(9-methyl-2-(5-phenyl-1,2,4-oxadiazol-3-yl)-8-(tetrahydro-2H-pyran-4-yl)-9H-purin-6-yl)morpholine] the value was 100 to 1000 nM; for `Cn1c(C2CCNC2)nc2c(N3CCOCC3)nc(-n3ccc(-c4ccccc4)n3)nc21` (centres unmarked) [Compound 90, 4-(9-Methyl-2-(3-phenyl-1H-pyrazol-1-yl)-8-(pyrrolidin-3-yl)-9H-purin-6-yl)morpholine], 10 to 100 nM.

In the case of `CC1CC(c2cccc(-c3nc(N4CCOCC4)c4nc(-c5ccncc5)n(C)c4n3)n2)CCN1` (centres unmarked) [Compound 91, 4-(9-methyl-2-(6-(2-methylpiperidin-4-yl)pyridin-2-yl)-8-(pyridin-4-yl)-9H-purin-6-yl)morpholine], the IC50 lay in the range of 100 to 1000 nM.

As for `Cn1c(-c2ccncc2)nc2c(N3CCOCC3)nc(-n3cc(-c4ccccc4)cn3)nc21` [Compound 92, 4-(9-methyl-2-(4-phenyl-1H-pyrazol-1-yl)-8-(pyridin-4-yl)-9H-purin-6-yl)morpholine], the half-inhibitory concentration (IC50) was 10 to 100 nM.

`Cn1c(-c2ccncc2)nc2c(N3CCOCC3)nc(-n3cc(-c4ccncc4)cn3)nc21` [Compound 93, 4-(9-methyl-8-(pyridin-4-yl)-2-(4-(pyridin-4-yl)-1H-pyrazol-1-yl)-9H-purin-6-yl)morpholine]: the IC50 was in the range of 10 to 100 nM. For the compound `Cn1c(-c2ccncc2)nc2c(N3CCOCC3)nc(-c3ccnc(C(F)(F)F)n3)nc21` [Compound 94, 4-(9-methyl-8-(pyridin-4-yl)-2-(2-(trifluoromethyl)pyrimidin-4-yl)-9H-purin-6-yl)morpholine], the IC50 was in the range of 10 to 100 nM. Take `Cn1c(-c2ccncc2)nc2c(N3CCOCC3)nc(-c3ccnc(C4CCCNC4)n3)nc21` (centres unmarked) [Compound 95, 4-(9-methyl-2-(2-(piperidin-3-yl)pyrimidin-4-yl)-8-(pyridin-4-yl)-9H-purin-6-yl)morpholine]: the IC50 fell in the range of 100 to 1000 nM. For `Cn1c(-c2ccncc2)nc2c(N3CCOCC3)nc(-n3ccc(C4CCOC4)n3)nc21` (centres unmarked) [Compound 96, 4-(9-methyl-8-(pyridin-4-yl)-2-(3-(tetrahydrofuran-3-yl)-1H-pyrazol-1-yl)-9H-purin-6-yl)morpholine] the value was 1000 to 10000 nM; for `Cn1c(-c2ccncc2)nc2c(N3CCOCC3)nc(-c3ccnc(C4CC4)n3)nc21` [Compound 97, 4-(2-(2-cyclopropylpyrimidin-4-yl)-9-methyl-8-(pyridin-4-yl)-9H-purin-6-yl)morpholine], 10 to 100 nM.
